Assay results from ChEMBL document CHEMBL6087451, “Design, Synthesis, and Biological Evaluation of 2-Arylaminopyrimidine Derivatives as Dual Cathepsin L and JAK Inhibitors for the Treatment of Acute Lung Injury” (J Med Chem, 2025).
Activity calls are given as the source filed them. The calls are words filed in the database; no cut-off is given here.

Tests used:
[1] = system: HBE; test: Anti-inflammatory activity against HBE cells assessed as inhibition of LPS-induced p-Ikappa-Balpha level pretreated for 30 mis followed by LPS treatment for 16 hrs by Western blot analysis; format: functional, cell-based; details: Homo sapiens, dose 0.5-5 µM, time 16.5 hrs
[2] = AUC (0 to infinity) in Sprague-Dawley rat at 3.5 mg/kg, po measured for 24 hrs by LC-MS/MS analysis; format: ADME, organism-based; details: in vivo
[3] = Cmax in Sprague-Dawley rat at 3.5 mg/kg, po measured for 24 hrs by LC-MS/MS analysis; format: ADME, organism-based; details: in vivo
[4] = system: Mus musculus; test: In vivo inhibition of mature CTSL in lung of C57BL/6 mouse model of LPS-induced acute lung injury at 10 to 20 mg/kg, ip treated for 3 days followed by LPS treatment after 1 hr post-compound administration on fourth day measured after 18 hrs post-LPS treatment by Western blot analysis; format: functional, organism-based; details: dose 10-20 mg/kg, time 91.0 hrs
[5] = system: Mus musculus; test: (§1) Anti-inflammatory activity in C57BL/6 mouse model of LPS-induced acute lung injury assessed as decrease in inflammatory cell infiltration in lung at 10 mg/kg, ip treated for 3 days followed by LPS treatment after 1 hr post-compound administration on fourth day measured after 18 hrs post-LPS treatment by H and E staining based analysis; format: functional, organism-based; details: time 91.0 hrs
[6] = Half life in Sprague-Dawley rat at 3.5 mg/kg, po measured for 24 hrs by LC-MS/MS analysis; format: ADME, organism-based; details: in vivo
[7] = Half life in Sprague-Dawley rat at 3.5 mg/kg, iv measured for 24 hrs by LC-MS/MS analysis; format: ADME, organism-based; details: in vivo
[8] = Anti-inflammatory activity against HBE cells assessed as inhibition of LPS-induced IL-8 level at 5 uM pretreated for 30 mins followed by LPS treatment for 24 hrs by ELISA relative to control; format: functional; details: Homo sapiens, time 24.5 hrs
[9] = system: RAW264.7; test: Anti-inflammatory activity against mouse RAW264.7 cells assessed as inhibition of LPS-induced IL-1beta mRNA level at 50 to 500 nM by RT-qPCR analysis; format: functional, cell-based; details: dose 50-500 nM
[10] = system: RAW264.7; test: Anti-inflammatory activity against mouse RAW264.7 cells assessed as inhibition of LPS-induced iNOS level by Western blot analysis; format: functional, cell-based; details: dose 50-500 nM
[11] = system: Mus musculus; test: as §1, with “IL-1beta mRNA level” for “inflammatory cell infiltration”, “RT-qPCR” for “H and E staining based”; format: functional, organism-based; details: time 91.0 hrs
[12] = system: RAW264.7; test: Anti-inflammatory activity against mouse RAW264.7 cells assessed as inhibition of LPS-induced TNF-alpha mRNA level at 50 to 500 nM by RT-qPCR analysis; format: functional, cell-based; details: dose 50-500 nM
[13] = AUC (0 to t) in Sprague-Dawley rat at 3.5 mg/kg, iv measured for 24 hrs by LC-MS/MS analysis; format: ADME, organism-based; details: in vivo
[14] = cells; details: Homo sapiens, HBE
Description: Anti-inflammatory activity against HBE cells assessed as inhibition of LPS-induced IL-6 level pretreated for 30 mins followed by LPS treatment for 24 hrs by ELISA

[15] = system: HBE; test: Anti-inflammatory activity against HBE cells assessed as inhibition of LPS-induced p-p65 level pretreated for 30 mis followed by LPS treatment for 16 hrs by Western blot analysis; format: functional, cell-based; details: Homo sapiens, dose 0.5-5 µM, time 16.5 hrs
[16] = system: Mus musculus; test: as §1, with “IL-6 mRNA level” for “inflammatory cell infiltration”, “RT-qPCR” for “H and E staining based”; format: functional, organism-based; details: time 91.0 hrs
[17] = cells; details: Homo sapiens, HBE; remark: listed apart in the source
Description: Anti-inflammatory activity against HBE cells assessed as inhibition of LPS-induced IL-8 level pretreated for 30 mins followed by LPS treatment for 24 hrs by ELISA

[18] = system: Mus musculus; test: as §1, with “TNF-alpha mRNA level” for “inflammatory cell infiltration”, “RT-qPCR” for “H and E staining based”; format: functional, organism-based; details: time 91.0 hrs
[19] = Half life in Sprague-Dawley rat at 3.5 mg/kg, ip measured for 24 hrs by LC-MS/MS analysis; format: ADME, organism-based; details: in vivo
[20] = AUC (0 to t) in Sprague-Dawley rat at 3.5 mg/kg, po measured for 24 hrs by LC-MS/MS analysis; format: ADME, organism-based; details: in vivo
[21] = Cmax in Sprague-Dawley rat at 3.5 mg/kg, iv measured for 24 hrs by LC-MS/MS analysis; format: ADME, organism-based; details: in vivo
[22] = system: Mus musculus; test: Anti-inflammatory activity in C57BL/6 mouse model of LPS-induced acute lung injury assessed as decrease in number of total cells in BALF at 10 mg/kg, ip treated for 3 days followed by LPS treatment after 1 hr post-compound administration on fourth day measured after 18 hrs post-LPS treatment; format: functional, organism-based; details: time 91.0 hrs
[23] = AUC (0 to infinity) in Sprague-Dawley rat at 3.5 mg/kg, iv measured for 24 hrs by LC-MS/MS analysis; format: ADME, organism-based; details: in vivo
[24] = system: RAW264.7; test: Anti-inflammatory activity against mouse RAW264.7 cells assessed as inhibition of LPS-induced p38 phosphorylation at 50 to 500 nM by Western blot analysis; format: functional, cell-based; details: dose 50-500 nM
[25] = system: Mus musculus; test: as §1, with “pulmonary edema” for “inflammatory cell infiltration”; format: functional, organism-based; details: time 91.0 hrs
[26] = system: RAW264.7; test: Cytotoxicity against mouse RAW264.7 cells assessed as cell viability at 0.5 to 5 uM; format: toxicity, cell-based; details: raw264.7, 5 µM, dose 0.5-5 µM
[27] = system: Mus musculus; test: as §1, with “in disruption of epithelial” for “in inflammatory”, “cell structures” for “cell infiltration”; format: functional, organism-based; details: time 91.0 hrs
[28] = Cmax in Sprague-Dawley rat at 3.5 mg/kg, ip measured for 24 hrs by LC-MS/MS analysis; format: ADME, organism-based; details: in vivo
[29] = biological target: T1, Procathepsin L (Homo sapiens, UniProt P07711); test: Inhibition of recombinant human Cat L using f Z-Phe-Arg-AMC as substrate preincubated for 30 mins followed by substrate addition
Target sequence in this assay (P07711 whole entry): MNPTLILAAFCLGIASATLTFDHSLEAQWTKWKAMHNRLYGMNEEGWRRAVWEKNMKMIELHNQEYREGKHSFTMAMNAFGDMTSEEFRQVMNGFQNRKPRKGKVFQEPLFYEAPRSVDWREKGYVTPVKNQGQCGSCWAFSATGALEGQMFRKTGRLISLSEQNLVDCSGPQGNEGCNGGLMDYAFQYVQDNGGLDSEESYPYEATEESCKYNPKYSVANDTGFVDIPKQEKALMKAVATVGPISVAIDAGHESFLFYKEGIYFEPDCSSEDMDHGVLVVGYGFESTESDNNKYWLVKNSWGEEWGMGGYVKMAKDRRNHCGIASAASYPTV

[30] = system: RAW264.7; test: Anti-inflammatory activity against mouse RAW264.7 cells assessed as inhibition of LPS-induced COX-2 level by Western blot analysis; format: functional, cell-based; details: dose 50-500 nM
[31] = system: Mus musculus; test: Anti-inflammatory activity in C57BL/6 mouse model of LPS-induced acute lung injury assessed as decrease in total protein concentration in BALF at 10 mg/kg, ip treated for 3 days followed by LPS treatment after 1 hr post-compound administration on fourth day measured after 18 hrs post-LPS treatment; format: functional, organism-based; details: time 91.0 hrs
[32] = system: Mus musculus; test: Anti-inflammatory activity in C57BL/6 mouse model of LPS-induced acute lung injury assessed as decrease in wet to dry ratio in lung at 10 mg/kg, ip treated for 3 days followed by LPS treatment after 1 hr post-compound administration on fourth day measured after 18 hrs post-LPS treatment; format: functional, organism-based; details: time 91.0 hrs
[33] = biological target: T1, Procathepsin L; test: Inhibition of CTSL maturation in HBE cells pretreated for 30 mis followed by LPS treatment for 16 hrs by Western blot analysis; format: cell-based; details: dose 0.5-5 µM, time 16.5 hrs
Target sequence in this assay (P07711 114-333 limits assumed): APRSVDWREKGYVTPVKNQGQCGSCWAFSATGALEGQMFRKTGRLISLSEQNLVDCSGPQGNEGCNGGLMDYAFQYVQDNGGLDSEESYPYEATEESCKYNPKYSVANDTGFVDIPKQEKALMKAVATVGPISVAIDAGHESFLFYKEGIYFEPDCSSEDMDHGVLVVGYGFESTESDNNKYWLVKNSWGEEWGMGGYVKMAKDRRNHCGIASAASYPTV

[34] = system: RAW264.7; test: Anti-inflammatory activity against mouse RAW264.7 cells assessed as inhibition of LPS-induced IL-1beta level at 50 to 500 nM; format: functional, cell-based; details: dose 50-500 nM
[35] = system: RAW264.7; test: Anti-inflammatory activity against mouse RAW264.7 cells assessed as inhibition of LPS-induced IL-6 mRNA level at 50 to 500 nM by RT-qPCR analysis; format: functional, cell-based; details: dose 50-500 nM
[36] = Oral bioavailability in Sprague-Dawley rat at 3.5 mg/kg measured for 24 hrs by LC-MS/MS analysis; format: ADME, organism-based; details: in vivo
[37] = AUC (0 to t) in Sprague-Dawley rat at 3.5 mg/kg, ip measured for 24 hrs by LC-MS/MS analysis; format: ADME, organism-based; details: in vivo
[38] = biological target: T1, Procathepsin L; test: Induction of thermal stabilization of pro-CTSL in protein lysate extracted from human THP-1 cells pretreated for 6 hrs followed by heat exposure at 37 to 62 degreeC for 3 mins by CETSA; format: subcellular; details: time 363.0 min
Target sequence in this assay (P07711 114-333 limits assumed): as above

[39] = system: Mus musculus; test: as §1, with “in disruption of endothelial” for “in inflammatory”, “cell structures” for “cell infiltration”; format: functional, organism-based; details: time 91.0 hrs
[40] = AUC (0 to infinity) in Sprague-Dawley rat at 3.5 mg/kg, ip measured for 24 hrs by LC-MS/MS analysis; format: ADME, organism-based; details: in vivo
[41] = Anti-inflammatory activity against HBE cells assessed as inhibition of LPS-induced IL-6 level at 5 uM pretreated for 30 mins followed by LPS treatment for 24 hrs by ELISA relative to control; format: functional; details: Homo sapiens, time 24.5 hrs
[42] = system: RAW264.7; test: Anti-inflammatory activity against mouse RAW264.7 cells assessed as inhibition of LPS-induced IL-1beta level
[43] = system: Mus musculus; test: as §1, with “alveolar hemorrhage” for “inflammatory cell infiltration”; format: functional, organism-based; details: time 91.0 hrs
[44] = system: RAW264.7; test: Anti-inflammatory activity against mouse RAW264.7 cells assessed as inhibition of LPS-induced IL-6 level

AUC(0-inf) [2]: 1.05 µg·h/mL
Cmax [3]: 0.193 µg/mL
half-life [6]: 6.48 h
half-life [7]: 5.06 h
AUC(0-t) at 24 h [13]: 1.63 µg·h/mL
IC50 [14]: 1.07 µM
IC50 [17]: 2.08 µM
half-life [19]: 5.19 h
AUC(0-t) at 24 h [20]: 0.83 µg·h/mL
Cmax [21]: 0.504 µg/mL
AUC(0-inf) [23]: 1.69 µg·h/mL
Cmax [28]: 0.331 µg/mL
IC50 [29]: 0.82 µM
inhibition [33]: Dose-dependent-effect
bioavailability [36]: 51.1%
AUC(0-t) at 24 h [37]: 1.51 µg·h/mL
Activity [38]: Active
AUC(0-inf) [40]: 1.58 µg·h/mL
IC50 [42]: 0.48 µM
IC50 [44]: 0.144 µM
Structure (SMILES): Cc1ccc(Nc2nccc(-c3cn(C)c4ccccc34)n2)cc1N.Cl
inhibition [1]: Dose-dependent-effect
inhibition [4]: Active
Activity [5]: Active
inhibition at 5 µM [8]: 76%
inhibition [9]: Active
inhibition [10]: Dose-dependent-effect
Activity [11]: Active
inhibition [12]: Active
inhibition [15]: Dose-dependent-effect
Activity [16]: Active
Activity [18]: Active
Activity [22]: Active
inhibition [24]: Active; Result Indicates Compound Suppresses Mapk Pathway
Activity [25]: Active
Activity [26]: Non-toxic
Activity [27]: Active
inhibition [30]: Dose-dependent-effect
Activity [31]: Active
Activity [32]: Active
inhibition [34]: Active
inhibition [35]: Active
Activity [39]: Active
inhibition at 5 µM [41]: 69%
Activity [43]: Active
